US6833364B1, “Substituted pyrazole derivatives” (Bayer HealthCare AG, priority 1998, dated 2004)

Assays:
rabbit aortal rings = assay: Vasorelaxant action in vitro, aortal rings contracted with phenylephrine; settings: Oryctolagus cuniculus; rabbit aorta rings, phenylephrine contraction; read-out: IC50 (concentration reducing height of phenylephrine contraction by 50%)
Experimental: Vasorelaxant Action in vitro
Rabbits are anaesthetized by a blow to the neck and exanguinated. The aorta is removed, freed from adhering tissue, divided into 1.5 mm wide rings and individually transferred under a pretension into 5 ml organ baths containing a warm, carbogen-aerated Krebs-Henseleit solution at 37° C. of the following composition (mM): NaCl: 119; KCl: 4.8; CaCl2×2 H2O: 1; MgSO4×7 H2O; 1.4; KH2PO4: 1.2; NaHCO3: 25; glucose: 10. The contractility is detected using Statham UC2 cells, amplified and digitalized by means of A/D converters (DAS-1802 HC, Keithley Instruments Munich), and recorded in parallel on linear recorders. To produce a contraction, phenylephrin is added to the bath cumulatively in increasing concentration. After several control cycles, the substance to be investigated is investigated in each further passage in increasing dosage in each case, and the height of the contraction is compared with the height of the contraction achieved in the last preliminary passage. From this, the concentration which is necessary in order to reduce the height of the control value by 50% (IC50) is calculated. The standard administration volume is 5 μl, and the proportion of DMSO in the bath solution corresponds to 0.1%.

anaesthetized rats = assay: Blood pressure measurements in anaesthetized rats; type: in vivo; settings: anaesthetized male Wistar rats
Experimental: Blood Pressure Measurements in Anaesthetized Rats
Male Wistar rats having a bodyweight of 300-350 g are anaesthetized with Thiopental (100 mg/kg i.p.). After tracheotomy, a catheter is inserted into the femoral artery for blood pressure measurement. The substances to be tested are administered orally in Transcutol, Cremophor EL, H2O (10%/20%/70%) in a volume of 1 ml/kg.

[1] = test system: human platelets stimulated with collagen; assay: Inhibition of platelet aggregation in vitro (collagen-induced); type: cell-based; settings: 10 min, washed human platelets, 10 min incubation at 37° C.
Experimental: To determine the cardiovascular action, the following investigations were carried out: In in vitro investigations on the isolated enzyme and on cells of vascular origin, the effect on guanylate cyclase-dependent cGMP formation was tested with and without NO donor. The anti-aggregatory properties were shown on human platelets stimulated with collagen. The vasorelaxant action was determined in rabbit aortal rings preconcentrated with phenylephrine. The hypotensive action was investigated in anaesthetized and awake rats.
To determine the platelet-aggregation, blood from healthy volunteers of both sexes was used. As an anticoagulant, 9 parts of blood were admixed to one part of 3.8% strength sodium citrate solution. The blood was centrifuged at 900 rpm for 20 min. The pH of the platelet-rich plasma obtained was adjusted to pH 6.5 using ACD solution (sodium citrate/citric acid/glucose). The platelets were subsequently centrifuged off and resuspended in buffer and once more centrifuged off. The platelet pellet was suspended in buffer and mixed with an additional 2 mmol/l of CaCl2.
To measure the aggregation, aliquots of the platelet suspension were incubated with the substance to tested at 37° C. for 10 min.

[2] = test system: soluble guanylate cyclase; assay: Stimulation of soluble guanylate cyclase in primary endothelial cells (intracellular cGMP); type: cell-based; settings: pig aortic primary endothelial cells, 10 min
Experimental: Stimulation of Soluble Guanylate Cyclase in Primary Endothelial Cells
Primary endothelial cells were isolated from pig aortas by treatment with collagenase soln. The cells were then cultured in culture medium at 37 °C./5% CO2 until confluence was reached. For the investigations, the cells were passaged, inoculated into 24-well cell culture plates and subcultured until reaching confluence (˜2×10^5 cells/well). For the stimulation of endothelial guanylate cyclase, the culture medium was aspirated and the cells were washed once with Ringer solution. After removing the Ringer solution, the cells were incubated for 10 minutes, at 37° C./5% CO2 in stimulation buffer. […] After a further 10 minutes the buffer solution was aspirated and cold buffer at 4° C. was added to the cells. The cells were then lysed at −20° C. for 16 hours. The supernatants containing the intracellular cGMP were then removed and the cGMP concentration was determined by means of the cGMP-SPA system (Amersham Buchler, Brunswick).

awake rabbits = assay: Erection-promoting action of guanylate cyclase stimulators in awake rabbits; type: in vivo, chinchilla rabbits; settings: for Erection-promoting effect, +SNP i.v.: with sodium nitroprusside 0.2 mg/kg i.v. simultaneously; for Erection-promoting effect, +SNP po: sodium nitroprusside 0.2 mg/kg i.v. 30 min later
Text: For a complete and lasting erection to occur, the cavernous arteries and the entire cavernous body architecture, which is formed by a network of smooth muscle cells and collagen connective tissue, has to be at maximum dilation so that the corpus cavernosum can fill completely with blood (Anderson K.-E. and Wagner G., “Physiology of Penile Erection.”. Physiological Reviews 75, 191-236 (1995); Meinhardt W. Kropmann R F, Vermeig P, Lycclama a Nigelholt and Zwartendijk J. “The Influence of Medication on Erectile dysfunction.” Int. J. of Impotence Res. 9, 17-26 (1997). Relaxation of smooth muscles is mediated by NO which, in the case of sexual stimulation, is released by non-adrenergic, non-cholinergic nerve fibres in the endothelial cells of the blood vessels of the corpus cavernosum. NO activates guanylate cyclase, and the resulting increase in cGMP leads to dilation of the smooth muscles of the corpus cavernosum and consequently to an erection. To test the efficacy of the substances according to the invention, awake rabbits were used. The species rabbit was chosen since neurophysiology, haemodynamic and the control of contraction and relaxation of the smooth muscles of the corpus cavernosum of rabbit and man are quite similar (Meyer M F, Taher H., Krah H., Staubesand J., Becker A J, Kircher M, Mayer B., Jonas U., Forsmann W G., Stief Ch.G. “Intracavenous Application of SIN-1 in Rabbit and Man: Functional and Toxcological Results.” Annals Urol. 27, 179-182 (1993); Taub H C, Lerner S E, Melman A, Christ G J “Relationship between contraction and relaxation in human and rabbit corpus cavernosum.” Urology 42, 698-671, (1993).
Adult male chinchilla rabbits having a weight of 3-5 kg are, after delivery, adapted for several days in isolation. They have free access to water and can feed for two hours per day. The animals are kept in a 10/14 hour day/night rhythm (light switched on from 8.00 hours onwards). The room temperature is 22-24° C.
The animals are weighed directly before the start of the experiment. For intravenous administration, the substances according to the invention were dissolved in a mixture of Transcutol (GATTEFOSSE GmbH ) diluted with 20% Cremophor (BASF) and water in a ratio of 3/7. Sodium nitroprusside was dissolved in 0.9% NaCl. The substances were injected at the dosages stated in the table in a volume of 0.5 ml/kg into the auricular vein. For oral administration, the test substances were dissolved in a mixture of glycerol: water: polyethylene glycol 6:10:9.69 and administered at the dosages stated in the table in a volume of 1 ml/kg using the stomach tube.
The effect of guanylate cyclase stimulators is increased by NO donors.
The sodium nitroprusside was injected into the auricular vein at a dosage of 0.2 mg/kg simultaneously with the substance according to the invention. If the substance according to the invention was administered orally, the sodium nitroprusside was injected into the auricular vein of these animals 30 min after the oral administration. Corresponding controls were carried out using the solvent and using sodium nitroprusside on its own.
At rest, the penis of the rabbit is not visible in the pubic region and is covered completely by the sheath. The erection is assessed by measuring the length of the protruding penis with a calliper square. Measurements are carried out 5, 10, 15, 30, 45, 60, 120 and 180 min. after the administration of the substance. The effect is calculated as the product of the length of the penis which is not covered by fur in [mm] and the time for which the erection persists in [min].
The substances were administered in the dosages stated. The sodium nitroprusside was in each case administered i.v., at 0.2 mg/kg. If the substance according to the invention was administered i.v., the sodium nitroprusside was administered simultaneously, if the substance according to the invention was administered orally, it was administered 30 min later. […]

Structure (SMILES): Nc1nc(-c2nn(Cc3ccccc3F)c3ncccc23)ncc1C1CC1 [Example 1, 3-(4-Amino-5-cyclopropylpyrimidin-2-yl)-1-(2-fluorobenzyl)-1H-pyrazolo[3,4-b]pyridine]
- IC50 (rabbit aortal rings): 200 nM
- Max. reduction in blood pressure (anaesthetized rats; 1 mg/kg p.o.): 23 mm Hg
- Time (of max. reduction in blood pressure) (anaesthetized rats; 1 mg/kg p.o.): 20 min
- Max. reduction in blood pressure (anaesthetized rats; 3 mg/kg p.o.): 37 mm Hg
- Time (of max. reduction in blood pressure) (anaesthetized rats; 3 mg/kg p.o.): 40 min
- IC50 [1]: 3 nM
- cGMP ([2]; concentration 0.1 μM): 2.2 pmol/well
- cGMP ([2]; concentration 0.3 μM): 4.0 pmol/well
- cGMP ([2]; concentration 1.0 μM): 6.9 pmol/well
- cGMP ([2]; concentration 3.0 μM): 8.5 pmol/well
- cGMP ([2]; concentration 10 μM): 14.6 pmol/well
- Erection-promoting effect, +SNP i.v. (awake rabbits; 0.3 mg/kg i.v.): 140 [mm] × [min]
- Erection-promoting effect, +SNP i.v. (awake rabbits; 1 mg/kg i.v.): 369 [mm] × [min]
- Erection-promoting effect, +SNP po (awake rabbits; 1 mg/kg po): 184 [mm] × [min]
- Erection-promoting effect, +SNP po (awake rabbits; 3 mg/kg po): 233 [mm] × [min]
- Erection-promoting effect, +SNP po (awake rabbits; 10 mg/kg po): 375 [mm] × [min]
- Erection-promoting effect, +SNP po (awake rabbits; 30 mg/kg po): 804 [mm] × [min]
- Erection-promoting effect, −SNP po (awake rabbits; 30 mg/kg po, without sodium nitroprusside): 418 [mm] × [min]

Structure (SMILES): Nc1nc(-c2nn(Cc3ccccc3F)c3ncccc23)ncc1C1CCC1 [Example 2, 3-(4-Amino-5-cyclobutylpyrimidin-2-yl)-1-(2-fluorobenzyl)-1H-pyrazolo[3,4-b]pyridine]
- melting point: 214 °C

Structure (SMILES): Nc1nc(-c2nn(Cc3ccccc3F)c3ncccc23)ncc1C1CCCC1 [Example 3, 3-(4-Amino-5-cyclopentylpyrimidin-2-yl)-1-(2-fluorobenzyl)-1H-pyrazolo[3,4-b]pyridine]
- melting point: 208 °C

Structure (SMILES): Nc1nc(-c2nn(Cc3ccccc3F)c3ncccc23)ncc1C1CCCCC1 [Example 4, 3(4-Amino-5-cyclohexylpyrimidin-2-yl)-1-(2-fluorobenzyl)-1H-pyrazolo[3,4-b]pyridine]
- melting point: 213 °C
